A short description of data set [1]: HAP affinity: chromatographic profiling on hydroxyapatite column (FPLC). The data set is classed as physicochemical. Conditions: phosphate buffer gradient 1 mM up to 1000 mM, pH 6.8, determined in triplicate, longer retention = higher mineral affinity.
For data set [2], the target named is T1, human farnesyl pyrophosphate synthase (FPPS) (Homo sapiens, UniProt P14324).
T1 construct: made in house
T1 sequence (P14324 67-419 limits assumed): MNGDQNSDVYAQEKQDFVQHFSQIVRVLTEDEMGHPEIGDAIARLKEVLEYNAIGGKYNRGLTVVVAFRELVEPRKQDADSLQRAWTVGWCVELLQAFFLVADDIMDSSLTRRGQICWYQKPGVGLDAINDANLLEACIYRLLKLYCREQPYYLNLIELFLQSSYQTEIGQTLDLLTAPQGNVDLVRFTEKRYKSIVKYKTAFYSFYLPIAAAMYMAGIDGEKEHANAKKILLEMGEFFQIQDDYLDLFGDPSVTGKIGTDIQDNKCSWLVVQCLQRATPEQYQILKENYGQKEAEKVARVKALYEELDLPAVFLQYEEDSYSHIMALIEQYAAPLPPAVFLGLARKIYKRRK
In words: FPPS inhibition in vitro. The data set is classed as biochemical. Particulars: recombinant human FPPS.

Turning to `O=P(O)(O)C(O)(Cc1cccnc1)P(=O)(O)O` [Risedronate], the “Retention time” value in data set [1] was found to be 9.97 min. Turning to `O=P(O)(O)C(O)(Cn1ccnc1)P(=O)(O)O` [Zoledronate], the “Retention time” value in data set [1] came out at 12.53 min. On the same count and under the same terms, under `O=P(O)(O)C(O)(Cc1cnc2ccccn12)P(=O)(O)O` [Minodronate] stands 10.33 min. The IC50 is the midpoint of a concentration-inhibition curve. The term Ki denotes a measure of affinity in units of concentration, obtained from inhibition or displacement. Consider `O=P(O)(O)C(Cc1c[nH]c2ccncc12)P(=O)(O)O` [5-azaindol-3-yl-ethyl-bisphosphonic acid], for which the half-maximal inhibitory concentration (IC50) in data set [2] (after pre-incubation) is 6.6 nM. Moreover, the Ki in data set [2] (final inhibition constant) worked out at 0.6 nM. Besides, the “Retention time” value in data set [1] is listed as 6.3 min.
